Source: patent US12102610B2, “Treprostinil salt” (Eli Lilly and Company, priority 2018, dated 2024)
Counter-ions that a name gives are not always drawn.

Tests used:
[1] = Hygroscopicity by dynamic vapor sorption/resorption, with XRD of samples from the adsorption/desorption process; type: physicochemical; settings: for weight increase at the 80% relative humidity point: dried samples, sorption in 5% RH steps; for hygroscopicity classification: from weight increase at 80% relative humidity, European Pharmacopoeia monograph 5.11 definitions, experimental conditions differ; for physical form change on humidity exposure (XRD): samples collected at different points in the adsorption/desorption process
Description: Hygroscopicity analyses of treprostinil erbumine salt, prepared as described above, and treprostinil sodium, purchased from a chemical supply company, are performed on a TA Instruments Q5000SA sorption analyzer. Hygroscopicity profiles are generated on dried samples at 25° C., increasing relative humidity by 5% up to 95%, then decreasing in 5% intervals back down to 5% relative humidity. The samples are equilibrated at each increment until weight percent change is <0.0100 for 5 min.

[2] = Thermal stability by thermal gravimetric analysis (TGA); type: physicochemical
Description: The thermal stability of samples of treprostinil erbumine salt, prepared as described above, and treprostinil free acid, purchased from a chemical supply company, are analyzed through thermal gravimetric analyses (TGA) performed on a TA Instruments TGA-Q5000 thermal gravimetric analyzer and differential scanning calorimetry (DSC) performed on a TA Instruments Q2000 differential scanning calorimeter. FIGS. 1 (erbumine salt) and 2 (free acid) show overlays of the TGA thermograms from 25-225° C. and the DSC thermograms from 25-300° C. […] DSC data for the erbumine salt show a single endothermic event (likely melt or decomposition) beginning at 143.73° C. and three endothermic events (71.17° C., 95.57° C., and 125.15° C.) for the free acid, corresponding to what is likely a hydrate along with at least two anhydrous crystal forms.

weight increase at the 80% relative humidity point ([1]; 25° C.) [%]	hygroscopicity classification [1]	TGA weight loss ([2]; between 25-100° C.) [%]	thermally stable up to ([2]; conclusion from TGA/DSC thermal characterization data)	TGA weight loss ([2]; between 26-70° C.) [%]	relative humidity at which desorption of water begins ([1]; 25° C., desorption in 5% RH steps from 95%) [% RH]	SMILES	physical form change on humidity exposure (XRD) [1]
< 0.2	non-hygroscopic to slightly hygroscopic	0.2318	at least 100 °C			CCCCC[C@H](O)CC[C@@H]1[C@H]2Cc3cccc(OCC(=O)O)c3C[C@H]2C[C@H]1O [erbumine salt, 2-[[(1R,2R,3aS,9aS)-2-hydroxy-1-[(3S)-3-hydroxyoctyl]-2,3,3a,4,9,9a-hexahydro-1H-cyclopenta[g]naphthalen-5-yl]oxy]acetic acid t-butylamine]	did not show a physical form change
				1.090		CCCCC[C@H](O)CC[C@@H]1[C@H]2Cc3cccc(OCC(=O)O)c3C[C@H]2C[C@H]1O [free acid, (1R,2R,3aS,9aS)-[[2,3,3a,4,9,9a-Hexahydro-2-hydroxy-1-[(3S)-3-hydroxyoctyl]-1H-benz[f]inden-5-yl]oxy]acetic acid]	
25	very hygroscopic				45	CCCCC[C@H](O)CC[C@@H]1[C@H]2Cc3cccc(OCC(=O)O)c3C[C@H]2C[C@H]1O [sodium salt]	non-reversible change to amorphous or poorly crystalline state
